Source: patent publication US8153385B2, “Target protein and target gene in drug designing and screening method” (Reverse Proteomics Research Institute Co., Ltd., priority 2004, dated 2012)

Target: T1, FLJ13397 clone-derived protein (CARP) (Homo sapiens, UniProt Q9H8M7)
T1 construct: A human full-length cDNA clone was expressed as a protein with an N-terminal His tag; His tag (pDEST17 Gateway vector) (N); made in house; host or cells: Escherichia coli BL21star(DE3)pLysS
T1 sequence (Q9H8M7 1-445): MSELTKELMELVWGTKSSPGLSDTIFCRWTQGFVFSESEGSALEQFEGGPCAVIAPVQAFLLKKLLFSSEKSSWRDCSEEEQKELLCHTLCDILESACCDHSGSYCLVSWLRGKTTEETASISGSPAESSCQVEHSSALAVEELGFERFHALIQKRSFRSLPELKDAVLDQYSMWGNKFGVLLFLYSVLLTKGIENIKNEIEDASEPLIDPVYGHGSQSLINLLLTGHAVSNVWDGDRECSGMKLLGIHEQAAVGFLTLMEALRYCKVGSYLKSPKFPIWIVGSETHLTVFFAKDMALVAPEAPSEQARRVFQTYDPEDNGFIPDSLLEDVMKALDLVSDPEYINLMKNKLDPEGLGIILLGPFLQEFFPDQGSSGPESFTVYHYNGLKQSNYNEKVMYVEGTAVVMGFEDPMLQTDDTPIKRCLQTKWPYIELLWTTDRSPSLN
Test: SEC/MS (size exclusion chromatography / mass analysis) interaction analysis between FLJ13397 clone-derived protein and compounds
Type: binding
Method: BP-reaction was performed on human full-length cDNA clone and the cloning vector Gateway pDONR201 by the PCR cloning method using the Invitrogen Gateway system to yield an entry clone. LR-reaction was performed on this entry clone with the destination vector pDEST17 (Gateway System) and LR Clonase at 25° C. for 60 minutes to yield an expression plasmid. Escherichia coli competent cell BL21star(DE3)pLysS were transformed with this expression plasmid, a clone incorporating the expression vector was selected, and a frozen stock was prepared. The transformant was inoculated into LB medium and precultured, after which it was transferred into SB medium and cultured to induce the expression by IPTG, and the cells were stored frozen.
A human full-length cDNA clone was expressed as a protein with an N-terminal His tag. This clone was purified using BioRobot 8000 (Qiagen) or ACTA Crystal (Amersham). […] In the purification with ACTA Crystal, affinity purification using a HisTrap HP column was followed by gel filtration purification using the Gel Filtration Column HiLoad 16/60 or a 10/30 Superdex 75 prep grade column. The purified fraction was used for interaction analysis after being subjected to SDS-PAGE to verify the estimated molecular weight and purity.
To analyze the interactions between commonly used drugs and proteins expressed from human full-length cDNA clones while keeping both the proteins and the compounds in non-modified, non-immobilized state, size exclusion chromatography (SEC) and mass analysis were used in combination (FIGS. 1 and 2). The specific procedures are shown below.
The compound-protein mixture prepared in step 1 was subjected to chromatography using an SEC column, the compound and the protein were separated by SEC, and the bound compound or compound that interacted with the protein in the protein fraction was analyzed using a mass analyzer.
Protein concentrations were measured using BCA Protein Assay (PIERCE), in consideration of the purity calculated by SDS-PAGE.
Mass analysis was performed using LCQ DECA XP (Thermoelectron) or Q-TOFmicro (Micromass), equipped with an ESI probe. The LC pump used was Agilent 1100 (Yokogawa Analytical Systems), and the autosampler used was HTC-PAL (CTC Analytics) equipped with a cooling stacker.
In the SEC method using a 384-well spin column, Unifilter 100 (Whatman), packed with 10 μL (dry volume) of Bio-Gel P6 (BIO-RAD) and swollen with milliQ water, was used as the SEC column. […] The SEC spin column was mounted on an acetonitrile-aliquoted 384-well U-bottom plate and centrifuged; the SEC spin column filtrate, which is a protein fraction, was retrieved in 50% acetonitrile. The protein precipitate produced by the acetonitrile was removed via centrifugation and filtration for protein removal; the resulting filtrate was concentrated by centrifugation and re-dissolved in 10 μL of 50% methanol to obtain a mass analysis sample. The mobile phase supplied to the mass analyzer was 0.1% formic acid/50% methanol solution in the positive ion mode, and 0.1% ammonia/50% methanol solution in the negative ion mode; these mobile phases were used at a flow rate of 40 μL/min. 2-μL of mass analysis samples were injected using an autosampler at 2-Minute intervals; the mass spectral intensity of the compound was measured to obtain the spectral intensity of the pharmaceutical compound contained in the SEC spin column filtrate (protein fraction eluted from SEC).

[1] = compound 1 μM, protein 0 μM (protein-free reference)
[2] = compound 1 μM, protein 23.75 μM
[3] = compound 10 μM, protein 0 μM (protein-free reference)
[4] = compound 10 μM, protein 23.75 μM
[5] = compound 10 μM, protein 47.5 μM
[6] = compound 100 μM, protein 0 μM (protein-free reference)
[7] = compound 100 μM, protein 23.75 μM
[8] = compound 100 μM, protein 47.5 μM
[9] = compound 250 μM, protein 0 μM (protein-free reference)
[10] = compound 250 μM, protein 23.75 μM
[11] = compound 250 μM, protein 47.5 μM

Compound	spectrum intensity of the extracted mass range (compound in SEC spin column filtrate) [1]	spectrum intensity of the extracted mass range (compound in SEC spin column filtrate) [2]	spectrum intensity of the extracted mass range (compound in SEC spin column filtrate) (compound 1 μM, protein 47.5 μM)	spectrum intensity of the extracted mass range (compound in SEC spin column filtrate) [3]	spectrum intensity of the extracted mass range (compound in SEC spin column filtrate) [4]	spectrum intensity of the extracted mass range (compound in SEC spin column filtrate) [5]	spectrum intensity of the extracted mass range (compound in SEC spin column filtrate) [6]	spectrum intensity of the extracted mass range (compound in SEC spin column filtrate) [7]	spectrum intensity of the extracted mass range (compound in SEC spin column filtrate) [8]	spectrum intensity of the extracted mass range (compound in SEC spin column filtrate) [9]	spectrum intensity of the extracted mass range (compound in SEC spin column filtrate) [10]	spectrum intensity of the extracted mass range (compound in SEC spin column filtrate) [11]
CCCOc1ccc2nc(NC(=O)OC)[nH]c2c1 [Oxibendazole]	570160	595458	529117	525337	3533115	9671167	1292692	7303166	8921904	2449247	20401030	13559202
COC(=O)Nc1nc2ccc(C(=O)c3ccccc3)cc2[nH]1 [Mebendazole]	495347	480780	495499	525296	777305	725295	482901	15054045	9517765	444136	32097734	43484997
OC(c1ccccc1)(c1ccccc1)C1CCNCC1 [α,α-Diphenyl-4-piperidinomethanol]	1354498	1217276	1961004	14109120	12131847	15743409	106849236	219345185	287013305	400374746	620399620	1037919
Nc1nc2ccccc2n1Cc1ccccc1 [2-Amino-1-Benzylbenzimidazole, 2-Amino-1-benzylbenzimidazole]	5598524	1659600	2958392	4341825	4509110	7550402	12703620	32945929	42993061	39100216	125775631	559844
COC(=O)Nc1nc2ccc(C(=O)c3cccs3)cc2[nH]1 [Nocodazole]	8235638	5202611	3977550	4879694	6159010	9316181	6162151	33749400	37180973	9512433	131043824	227971112
Oc1ccc(CCN2CCC(Nc3nc4ccccc4n3Cc3ccc(F)cc3)CC2)cc1 [Desmethyl-astemizole]	12076364	10091649	10876345	6489161	12628724	26276867	85510154	141884756	225675004	135192715	339921213	728918987
Nc1nc2ccccc2[nH]1 [2-Aminobenzimidazole]	276565	42562	152781	153479	69826	71963	437739	1819414	2080493	2837732	7370524	8155388
c1ccc2[nH]c(-c3cscn3)nc2c1 [Thiabendazole]	61442947	42216896	47595391	21903023	45510612	41434122	60344905	64811390	63585895	40530147	93902905	125101370
